From patent publication US9949979B2, “Use of inhibitors of the activity or function of PI3K” (NOVARTIS AG, priority 2011, dated 2018)

Columns and labels:
TLR9 [1] = assay: TLR9-induced IFN-alpha in murine splenocytes (CpG1585, ELISA); type: cell-based, 129/Sv mice; settings: Mus musculus, Splenocyte; read-out: TLR9-ligand induced IFNα in murine splenocytes IC50
Method: 2.3 Determination of TLR9-Induced IFN-Alpha in Murine Splenocytes
(§1) Excess fat was trimmed from the spleens prior to mashing the spleen through a […] cell strainer using a plunger from a 5 ml syringe. A single cell suspension was prepared and the volume was adjusted to 15 ml in a 50 ml Falcon tube using cold PBS. Cells were centrifuged at 1500 rpm for 5 minutes at 4° C. degrees prior to removal of supernatant and re-suspension in 5 ml of red blood cell lysis buffer per spleen and incubation for 5 minutes at room temperature. Ice cold PBS (30 ml) was added to the cells prior to centrifugation at 1500 rpm for 5 minutes at 4° C. The supernatant was removed and the cells were washed twice with 40 ml of murine splenocyte culture media (MSCM). […] Cells were re-suspended in 10-20 ml of MSCM and counted using a Countess cell counter. […]
(§2) After overnight culture, cells were transferred to 96-well V-bottomed plates and centrifuged at 2000 rpm for 5 minutes at room temperature. Subsequently 150 μl of each culture supernatant was transferred to 96-well flat-bottomed plates and […] were measured using commercially available mouse IFN-alpha sandwich ELISA kit (PBL Interferon Source). […] IFN-alpha levels were measured within 5 minutes using a SpectraMax 190 Plate Reader (450 nm) and analyzed using SoftMax Pro and GraphPad Prism software.

TLR9 [2] = assay: TLR9-induced IL-6 in murine splenocytes (CpG1826, ELISA); type: cell-based, C57BL/6 mice; settings: Mus musculus, Splenocyte; read-out: TLR9-ligand induced IL-6 in murine splenocytes IC50
Method: 2.2 Determination of TLR9-Induced IL-6 in Murine Splenocytes
as §1, with “Spleens were dissected from C57BL/6 mice immediately following euthanasia. Excess” for “Excess”
as §2, with “IL-6” for “IFN-alpha”, “(R&D systems).” for “(PBL Interferon Source).”, “measured” for “measured within 5 minutes”

IC50 (TLR9 [1]): > 2220 nM
IC50 (TLR9 [2]): 96 nM
SMILES: CCC(=O)N1CC[C@H](Nc2ncnc3c2CN(c2cnc(OC)c(C(F)(F)F)c2)CC3)C1 [Example 67, 1-{(S)-3-[6-(6-Methoxy-5-trifluoromethyl-pyridin-3-yl)-5,6,7,8-tetrahydro-pyrido[4,3-d]pyrimidin-4-ylamino]-pyrrolidin-1-yl}-propan-1-one]
